Reference: patent US11129867B2, “Method of treating cancer cells” (priority 2017, dated 2021)
Where a SMILES comes first, the peptide text is derived from it. The star is where a group is joined. X1 = CN(C)c1ccc2c(-c3ccc(C(=O)*)cc3C(=O)[O-])c3ccc(=[N+](C)C)cc-3oc2c1

What was measured:
phospho-γH2Ax = assay: Immunofluorescence staining of phospho-γH2Ax (DNA damage); assay type: cell-based, human
Procedure: Representative images showing DAPI-labelled nucleus (shown in blue) co-stained with phospho-γH2Ax (green). Ca922 cells were treated with 25 μM TMR-GBP for 12 or 24 hours followed by immunofluorescence staining. Foci in the nucleus indicated damaged DNA. Scale bar indicates 10 μm.
At least 20 cells were counted in each category. Bars indicate standard deviations from three independent experiments.
Immunofluorescence Staining
Cells grown on coverslips were washed with 1×PBS and fixed by PTEMF buffer (20 mM PIPES pH 6.8, 0.2% Triton X-100, 10 mM EGTA, 1 mM MgCl2, and 4% formaldehyde) or 4% paraformaldehyde for 10 minutes at room temperature. Then, fixation buffer was replaced with 1×PBST and the cells were washed with 1×PBST for another 10 minutes at room temperature. Coverslips were washed with 1×PBST twice gently and incubated with primary antibodies at room temperature for 1 hour. Next, washed with PBST for three times (2, 2, 5 minutes). Afterwards, coverslips were cultured in Alex Fluor-conjugated secondary antibodies and DAPI at room temperature for 30 minutes, washed three times (2, 2, 5 minutes), rinsed with ddH2O and mounted with mounting medium. Antibodies concentration used in this analysis is 1:1000 dilution. Images were acquired with specific fluorescence wavelength by Leica DMI6000 inverted microscope equipped with HCX PL FL 100λ/NA1.40 objective and EMCCD camera. All images were analyzed by MetaMorph software.

A549 = assay: WST-8 cell viability assay, A549; assay type: cell-based; conditions: A549 (lung cancer), different concentrations, 48 hours, FIG. 3
Procedure: Human oral squamous cell carcinoma (OSCC) cell lines, Ca922, OSC20, OECM-1, OC3, CGHNC9, HSC3, plus A549, MDA-MB-231, MCF7, Huh7, HeLa-Kyoto, Detroit 562, H520, H2170, and 293T cells were used in this study. Ca922, CGHNC9, MDA-MB-231, MCF7, Huh7, HeLa-Kyoto, Detroit 562, and 293T cells were all cultured in high-glucose Dulbecco's Modified Eagle Medium (DMEM). OSC20 and HSC3 cells were cultured in Dulbecco's Modified of Eagle's Medium/Ham's F-12 50/50 Mix (1:1). OECM-1, A549, H520, and H2170 cells were grown in RPMI-1640 medium. All culture media were supplemented with 10% fetal bovine serum (FBS) and 1% penicillin-streptomycin. OC3 cells were cultured in 1:1 DMEM/KSFM (keratinocyte serum-free medium) with supplied supplement of Bovine pituitary extract (BPE) and epidermal growth factor (EGF) followed by instruction. All the cells in this study were maintained at 37° C. in humidified atmosphere containing 5% CO2.
WST-8 [2-(2-methoxy-4-nitrophenyl)-3-(4-nitrophenyl)-5-(2,4-disulfophenyl)-2H-tetrazolium, monosodium salt] cell viability assay
Cells were seeded into 96 well plate and incubated at 37° C. overnight. […] The amount of formazan produced is proportional to the number of live cells and is expressed as cellular viability. […] Cell viability was measured at the absorbance of 450/655 nm wavelength by ELISA reader.

CN(C)c1ccc2c(-c3ccc(C(=O)N[C@@H](CC(N)=O)C(=O)N[C@@H](Cc4ccc(O)cc4)C(=O)N[C@@H](CCCNC(=N)N)C(=O)N[C@@H](Cc4c[nH]c5ccccc45)C(=O)N[C@@H](CCCNC(=N)N)C(=O)N[C@@H](CS)C(=O)N[C@@H](CCCCN)C(=O)N[C@@H](CC(N)=O)C(=O)N[C@@H](CCC(N)=O)C(=O)N[C@@H](CC(N)=O)C(=O)O)cc3C(=O)[O-])c3ccc(=[N+](C)C)cc-3oc2c1 [TMR-GBP] (X1-NYRWRCKNQN-OH; N-terminus and C-terminus assumed)
phospho-γH2Ax foci in the nucleus (DNA damage) (phospho-γH2Ax; Ca922, 25 μM TMR-GBP, 12 or 24 hours, FIG. 10A): many foci were observed accumulating in the nucleus
increase of nuclear γH2Ax intensity (phospho-γH2Ax; Ca922, 25 μM, over control cells or cells co-treated with TMR-GBP and NAC, FIG. 10B): 4 folds
phospho-γH2Ax signal, co-treated with NAC (phospho-γH2Ax; Ca922, co-treated with TMR-GBP and NAC, FIG. 10A): hardly detected any phospho-γH2Ax signal
cell viability (A549): not markedly affected
